Consider one compound from US20240016779A1, “COMPOSITION FOR PREVENTING AND TREATING INFLAMMATORY DISEASE AND AUTOIMMUNE DISEASES AND NON-ALCOHOLIC FATTY LIVER DISEASE, COMPRISING EXTRACT DERIVED FROM CENTIPEDA MINIMA” (D-NATURE CO., LTD., priority 2020, published 2024).

Assay type in all cases: cell-based
In test [1] the test system is 3T3-L1 cells. Description: Adipocyte differentiation inhibitory effect. Particulars: tested 0.16, 0.31, 0.63, 1.25 μg/ml. The protocol: To confirm the effect of the Centipeda minima extract for inhibiting non-alcoholic steatohepatitis, an experiment was performed on preadipocytes according to an inflammatory disease treatment agent.
Specifically, the evaluation was performed by using 3T3-L1 cells, which are preadipocytes, and after the 3T3-L1 cells were treated with each of JAKI and elafibranor at concentrations of 0 μg/ml, 0.16 μg/ml, 0.31 μg/ml, 0.63 μg/ml, and 1.25 μg/ml and then cultured for 6 hours under the same conditions, the changes of the 3T3-L1 cells were analyzed.

Test [2] relates to 3T3-L1 cells. Description: TNF-a induced IL-6 production in preadipocytes. Particulars: 0.16 to 2.5 μg/ml. As for the experimental part:
To confirm the non-alcoholic steatohepatitis inhibitory effect of the Centipeda minima extract, an experiment was performed with INF-a induced IL-6 production in preadipocytes according to an inflammatory disease treatment agent.
Specifically, the evaluation was performed by using 3T3-L1 cells, which are preadipocytes, and after the 3T3-L1 cells were treated with each of JAKI and elafibranor at concentrations of 0 μg/ml, 0.16 μg/ml, 0.31 μg/ml, 0.63 μg/ml, 1.25 μg/ml, and 2.5 μg/ml and then cultured for 6 hours under the same conditions, the changes of the IL-6 production were analyzed.

In test [3] the test system is 3T3-L1 cells. Description: TNF-a induced MCP-1 production in preadipocytes. The note with it: 0.16 to 2.5 μg/ml. The protocol: To confirm the non-alcoholic steatohepatitis inhibitory effect of the Centipeda minima extract, an experiment was performed with TNF-a induced MCP-1 production in preadipocytes according to an inflammatory disease treatment agent.
Specifically, the evaluation was performed by using 3T3-L1 cells, which are preadipocytes, and after the 3T3-L1 cells were treated with each of JAKI and elafibranor at concentrations of 0 μg/ml, 0.16 μg/ml, 0.31 μg/ml, 0.63 μg/ml, 1.25 μg/ml, and 2.5 μg/ml and then cultured for 6 hours under the same conditions, the changes of the MCP-1 production were analyzed.

The subject of test [4] is LX-2 cells. Kind of test: Liver fibrosis-related protein expression. Particulars: 40 μM, 24 hours. As for the experimental part:
Specifically, the evaluation was performed by using LX-2 cells, which are hepatic stellate cells. LX-2 cells treated with TGF-P1 at a concentration of 5 ng/ml were treated with JAKI at concentrations of 0 μM, 20 μM, and 40 μM, and then cultured under the same conditions for 24 hours. Thereafter, the protein expression levels of TGF-131, collagen type-1, MMP-2, TIMP1, and GAPDH, and the protein expression ratios of TGF-131, collagen type-1, MMP-2, and TIMP1 compared to GAPDH were analyzed.
Specifically, the evaluation was performed by using LX-2 cells, which are hepatic stellate cells. The LX-2 cells treated with 5 ng/ml TGF-P1 were treated with elafibranor at concentrations of 0 μM, 20 μM, 40 μM, and 80 μM in the control group of the present invention, and the cultured for 24 hours under the same conditions. Then, the protein expression ratios of TGF-131, collagen type-1, MMP-2, and TIMP1 compared to GAPDH were analyzed.

A value given as a limit tells only on which side of the number the result lay.

Turning to `CSc1ccc(C(=O)/C=C/c2cc(C)c(OC(C)(C)C(=O)O)c(C)c2)cc1` [elafibranor], the “concentration from which adipocyte differentiation is inhibited” value in test [1] was at least 0.63 µg/mL. Also, the “change in the IL-6 production” value in test [2] is “no change”. The “change in the MCP-1 production” value in test [3] is “no change”. In test [4], the “expression ratio of MMP-2 protein compared to GAPDH” value is given as “decreased”, the “expression ratio of TGF-β1 protein compared to GAPDH” value was “decreased”, the “expression ratio of TIMP1 protein compared to GAPDH” value is recorded as “decreased” and the “expression ratio of collagen type-1 protein compared to GAPDH” value is “decreased”.
